Type in all cases: cell-based
The subject of one experiment is C. Krusei. Description: In vitro antibacterial (antifungal) test, two-fold dilution MIC. Conditions: Pichia kudriavzevii, RPMI 1640, culture 2-7 days.
The subject of another experiment is C. glabrata. Described as above. Conditions: Nakaseomyces glabratus, RPMI 1640, culture 2-7 days.
For the next experiment, the system named is C. tropicalis. Described as above. The following applies: Candida tropicalis, RPMI 1640, culture 2-7 days.
The test system of a further experiment is C. neoformans. The description is as above. The following applies: Cryptococcus neoformans, RPMI 1640, culture 2-7 days.
For another experiment, the system named is C. albicans. The experiment is described as above. Conditions: Candida albicans, read-out: MIC C. albicas.
The next experiment has as its system M. gypseum. The experiment is described as above. The following applies: Nannizzia gypsea, RPMI 1640, culture 2-7 days.
A further experiment deals with C. parapsilosis. Described as above. Conditions: Lodderomyces parapsilosis, RPMI 1640, culture 2-7 days.
Another experiment has as its system A. niger. Described as above. The following applies: Aspergillus niger, RPMI 1640, culture 2-7 days.
The next experiment has as its system E. floccosum. The experiment is described as above. Conditions: Epidermophyton floccosum, RPMI 1640, culture 2-7 days.
The test system of a further experiment is S. schenekn. The experiment is described as above. Conditions: RPMI 1640, culture 2-7 days.
For another experiment, the system named is AS24391. Kind of experiment: In vitro anticancer MTT experiment. Conditions: concentration 5 ug/ml, 48 h or 72 h, read-out: inhibition ratio AS24391. The procedure, abridged:
(§1)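 Inhibition ratios were measured at a compound concentration of 5 ug/ml. Log-phase cells grown in RPMI 1640/10% fetal calf serum were treated for 48 h or 72 h, and viability was assessed by MTT reduction with absorbance read at 570 nm.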

A further experiment concerns HTB-95637. Description: In vitro anticancer MTT experiment. The following applies: concentration 5 ug/ml, 48 h or 72 h, read-out: inhibition ratio HTB-95637. In a few lines:
as §1

A further experiment deals with HTB-131MDA-MB-453. Kind of experiment: In vitro anticancer MTT experiment. Conditions: concentration 5 ug/ml, 48 h or 72 h, read-out: inhibition ratio HTB-131MDA-MB-453. In a few lines: as §1
In another experiment the test system is CRL-1469PANC-1. Description: In vitro anticancer MTT experiment. Conditions: concentration 5 ug/ml, 48 h or 72 h, read-out: inhibition ratio CRL-1469PANC-1. The procedure, abridged: as §1
A further experiment has as its system B01092. Kind of experiment: In vitro anticancer MTT experiment. Conditions: concentration 5 ug/ml, 48 h or 72 h, read-out: inhibition ratio B01092. The procedure, abridged:
as §1

The subject of another experiment is SGC7901. Description: In vitro anticancer MTT experiment. Conditions: Homo sapiens, SGC-7901, concentration 5 ug/ml, 48 h or 72 h, read-out: inhibition ratio SGC7901. In a few lines: as §1
The test system of another experiment is L1210. Description: In vitro anticancer MTT experiment. Conditions: Mus musculus, concentration 5 ug/ml, 48 h or 72 h, read-out: inhibition ratio L1210. The procedure, abridged:
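Cells in RPMI 1640 with 10% fetal calf serum were seeded at 6000-7000 per well, rested 12 h at 37° C., then exposed to compound for 48 h or 72 h. MTT was read as OD at 570 nm. Inhibition ratio was derived against untreated and blank wells, with reported values taken at 5 ug/ml.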

Another experiment deals with L428. Description: In vitro anticancer MTT experiment. The following applies: Homo sapiens, L-428, concentration 5 ug/ml, 48 h or 72 h, read-out: inhibition ratio L428. In a few lines:
as §1

In a further experiment the test system is HTB-38HT-29. Kind of experiment: In vitro anticancer MTT experiment. The following applies: concentration 5 ug/ml, 48 h or 72 h, read-out: inhibition ratio HTB-38HT-29. The procedure, abridged:
as §1

The subject of a further experiment is A375. Description: In vitro anticancer MTT experiment. The following applies: Homo sapiens, A-375, concentration 5 ug/ml, 48 h or 72 h, read-out: inhibition ratio A375. The procedure, abridged:
as §1

In a further experiment the test system is CRL-2233SNU-398. Description: In vitro anticancer MTT experiment. Conditions: concentration 5 ug/ml, 48 h or 72 h, read-out: inhibition ratio CRL-2233SNU-398. The procedure, abridged:
as §1

Another experiment has as its system CRL-1435PC-3. Description: In vitro anticancer MTT experiment. The following applies: concentration 5 ug/ml, 48 h or 72 h, read-out: inhibition ratio CRL-1435PC-3. The procedure, abridged: as §1
A further experiment concerns FTC 133. Kind of experiment: In vitro anticancer MTT experiment. The following applies: Homo sapiens, concentration 5 ug/ml, 48 h or 72 h, read-out: inhibition ratio FTC 133. The procedure, abridged: as §1
A further experiment has as its system HTB-94. Description: In vitro anticancer MTT experiment. Conditions: concentration 5 ug/ml, 48 h or 72 h, read-out: inhibition ratio HTB-94. The procedure, abridged:
as §1

The subject of a further experiment is Setosphaeria turcica. Kind of experiment: In vitro antibacterial (antifungal) test, two-fold dilution MIC. The following applies: Exserohilum turcicum, RPMI 1640, culture 2-7 days.
For the next experiment, the system named is Terchoderma. Described as above. The following applies: Trichoderma, RPMI 1640, culture 2-7 days.
For experiment [1], the system named is Fusarium oxysporum vasinfectum. The description is as above. The following applies: RPMI 1640, culture 2-7 days.
The next experiment concerns gibberella. The description is as above. The following applies: RPMI 1640, culture 2-7 days.

Molecules are shown by their SMILES. ≈ marks a conversion by molar mass, not a printed value.

This passage reports MIC and inhibition results from US20120035206A1, “PREPARATION AND APPLICATION OF NOVEL ANTIBACTERIAL AND ANTICANCER COMPOUNDS AND THEIR DERIVATIVES” (priority 2009, published 2012).

As a reminder, the MIC is the lowest concentration found to suppress growth. `Cc1ccc2c(c1)C(=O)CCS2` [Compound 1]: the MIC turned out to be 32 µg/mL (≈ 180 µM) against C. Krusei; 64 µg/mL (≈ 359 µM) against C. glabrata; 32 µg/mL (≈ 180 µM) in the experiment with C. tropicalis; 64 µg/mL (≈ 359 µM) against C. neoformans; 64 µg/mL (≈ 359 µM) in the experiment on C. albicans; 64 µg/mL (≈ 359 µM) in the experiment with M. gypseum. Besides, the minimum inhibitory concentration (MIC) in the experiment on C. parapsilosis was 64 µg/mL (≈ 359 µM); in the experiment on A. niger, 32 µg/mL (≈ 180 µM); with E. floccosum, 32 µg/mL (≈ 180 µM); against S. schenekn, 32 µg/mL (≈ 180 µM).
With `Cc1ccc2c(c1)C(=O)/C(=C\O)CS2` [Compound 2], the MIC against C. Krusei, with C. glabrata, against C. tropicalis, against C. neoformans, with C. albicans and in the experiment with M. gypseum was 32 µg/mL (≈ 155 µM) each time. The MIC in the experiment with C. parapsilosis was 64 µg/mL (≈ 310 µM); against A. niger, 64 µg/mL (≈ 310 µM); with E. floccosum it was 32 µg/mL (≈ 155 µM); against S. schenekn it was 16 µg/mL (≈ 77.6 µM).
`O=C1/C(=C/Br)CSc2ccc(F)cc21` [Compound 11, (Z)-3-(bromomethylene)-6-fluorothiochroman-4-one]: the inhibition at 5 µg/mL was found to be 46.9% in the experiment with AS24391; 49.5% in the experiment with HTB-95637; 45.6% in the experiment on HTB-131MDA-MB-453; 39.4% in the experiment on CRL-1469PANC-1; 45.5% in the experiment on B01092; 59% in the experiment with SGC7901. The inhibition at 5 µg/mL came out at 86% with L1210; 50.3% with L428; 45.5% with HTB-38HT-29; 47% with A375; 60.1% with CRL-2233SNU-398; 47.9% in the experiment on CRL-1435PC-3. Besides, the inhibition at 5 µg/mL with FTC 133 came out at 56.7%; in the experiment with HTB-94 it was 36.7%. The MIC was 16 µg/mL (≈ 58.6 µM) with C. Krusei; 8 µg/mL (≈ 29.3 µM) with C. glabrata; 64 µg/mL (≈ 234 µM) with C. tropicalis; 32 µg/mL (≈ 117 µM) against C. neoformans; 64 µg/mL (≈ 234 µM) in the experiment on C. albicans; 64 µg/mL (≈ 234 µM) against M. gypseum. In addition, the minimum inhibitory concentration (MIC) in the experiment on C. parapsilosis worked out at 32 µg/mL (≈ 117 µM); against Setosphaeria turcica, 32 µg/mL (≈ 117 µM); in the experiment with E. floccosum, 32 µg/mL (≈ 117 µM); against S. schenekn, 32 µg/mL (≈ 117 µM); in the experiment on Terchoderma, 16 µg/mL (≈ 58.6 µM); in [1], 32 µg/mL (≈ 117 µM). In addition, the MIC against gibberella stood at 16 µg/mL (≈ 58.6 µM).
Regarding `Cc1ccc2c(c1)C(=O)CSC2` [Compound 13], the inhibition at 5 µg/mL was determined as 45.1% with AS24391; 56.6% with HTB-95637; 65.5% in the experiment on HTB-131MDA-MB-453; 62.7% with CRL-1469PANC-1; 43.8% with B01092; 50.6% in the experiment with SGC7901. In addition, the inhibition at 5 µg/mL with L1210 amounted to 85.6%; with L428, 37.5%; with HTB-38HT-29, 57.3%; with A375 it was 74.3%; with FTC 133, 57.8%; in the experiment on HTB-94, 45.6%. In addition, the MIC amounted to 64 µg/mL (≈ 359 µM) in the experiment on C. glabrata; 16 µg/mL (≈ 89.8 µM) in the experiment on C. tropicalis; 64 µg/mL (≈ 359 µM) in the experiment on C. neoformans; 64 µg/mL (≈ 359 µM) in the experiment on C. albicans; 16 µg/mL (≈ 89.8 µM) in the experiment on M. gypseum; 32 µg/mL (≈ 180 µM) against C. parapsilosis. Besides, the MIC in the experiment on A. niger is 32 µg/mL (≈ 180 µM); with E. floccosum it was 32 µg/mL (≈ 180 µM); in the experiment on S. schenekn, 64 µg/mL (≈ 359 µM).
